Assays:
Type in all cases: in vivo
[1] = test system: 3rd-instar larvae of Plutella xylostella; experiment: Joint toxicity of I-72 + metaflumizone, airbrush spraying, Example 4, Table 4; conditions: airbrush spraying of cabbage leaf disks, 72 h, A = compound I-72, B = metaflumizone
Procedure: Test target: 3rd-instar larvae of Plutella xylostella, a sensitive strain reared indoors.
Test conditions: temperature: 25-27° C., humidity: RH 60%, and illumination: L:D=14:10
Experimental method: the airbrush spraying method was adopted. The cabbage cultivated in the greenhouse was taken and made into leaf disks with a diameter of 3 cm. After uniform spraying treatment with an airbrush manual sprayer, the leaf disks were placed in a 9-cm Petri dish lined with filter paper. After natural air-drying in the shade, the standard test insects were introduced, and the number of dead and live insects was investigated 72 h later.
The preparation of the pesticide solution and the evaluation method (Sun Y-P) for the joint action type of the mixture were the same as those in Example 1.

[2] = test system: 3rd-instar larvae of Pyrausta nubilalis Hubern; experiment: Joint toxicity of I-72 + metaflumizone, artificial diet-pesticide film, Example 2, Table 2; conditions: 72 h, A = compound I-72, B = metaflumizone
Procedure: (§1) Test subject: 3rd-instar larvae of Pyrausta nubilalis Hubern, a sensitive strain reared indoors.
(§2) Experimental method: the artificial diet-pesticide film method was adopted. A standard clean 24-well culture plate was selected. 1 ml of artificial diet was added to each well. After the diet cooled and solidified, a quantitative amount of a pesticide solution was added to the culture plate using a continuous sampler, and then it was air-dried naturally in the shade. The standard test insects were introduced, with 1 insect in each well, a total of 48 insects. The treated test insects were placed in an observation room under certain conditions. The reaction of the test insects was regularly observed, and the number of dead and live insects was investigated 72 h later.
(§3) The test conditions, the preparation method of the pesticide solution, and the evaluation method (Sun Y-P) for the joint action type of the mixture were the same as those in Example 1.

[3] = test system: Bemisia tabaci (Gennadius) nymphs; experiment: Joint toxicity of I-72 + organophosphorus insecticides, cotton leaf-disk spraying, Example 18, Table 18; conditions: 96 h
Procedure: Test target: Bemisia tabaci (Gennadius) nymphs.
(§4) Preparation of the pesticide solution: according to different test requirements, the test samples were accurately weighed respectively with an electronic analytical balance. The technical pesticides were dissolved in acetone, and then diluted with 0.1% Tween 80 water into a series of pesticide solutions with a certain concentration gradient according to the experimental design dosage.
Experimental method: first, cotton leaves with neat and consistent Bemisia tabaci (Gennadius) nymphs were selected and made into leaf disks, with about 20 insects on each leaf disk. Then, they were evenly sprayed with the pesticide solution in the order from low dosage to high dosage according to the experimental design, with 1.5 mL for each leaf and 3 replicates for each treatment. In addition, a blank control was set up.
(§5) The treated test materials were placed in an observation room, and the temperature, humidity and illumination of the observation room could be adjusted as needed. The number of dead and live insects was investigated 96 hours later. The corrected mortality rate was calculated using the Abbott's formula, and statistical analysis was performed with the DPS data processing software to obtain the toxicity regression equation, LC50 value and 95% confidence limit of each single test pesticide and each mixture of different ratios. Then, the co-toxicity coefficient of each ratio was calculated using the Sun Y-P method to evaluate the mixing effect (the same as in Example 1).

[4] = test system: 3rd-instar larvae of Chilo suppressalis (Walker); experiment: Joint toxicity of I-72 + organophosphorus insecticides, rice seedling dipping, Example 15, Table 15; conditions: 48 h
Procedure: Test target: 3rd-instar larvae of Chilo suppressalis (Walker), a sensitive strain reared indoors.
as §4
(§6) Experimental method: first, tender and fresh rice seedlings were selected and dipped in the prepared pesticide solution for 10 s in the order from low dosage to high dosage according to the experimental design. After natural air-drying in the shade, they were cut into small sections of 5 cm, placed in a 9-cm-diameter Petri dish with filter paper, and uniform and healthy test insects were introduced, with 10 insects for each treatment and 3 replicates for each treatment. In addition, a blank control was set up.
as §5, with “48” for “96”

[5] = test system: 3rd-instar larvae of Ostrinia furnacalis Guenee; experiment: Joint toxicity of I-72 + organophosphorus insecticides, corn stalk dipping, Example 21, Table 21; conditions: 48 h
Procedure: Test target: 3rd-instar larvae of Ostrinia furnacalis Guenee, a sensitive strain reared indoors.
as §4
as §6, with “first, fresh” for “first,”, “corn stalks cultivated in the greenhouse” for “and fresh rice seedlings”, “selected, cut into small sections of 3 cm,” for “selected”, “were” for “were cut into small sections of 5 cm,”
as §5, with “48” for “96”

adult Phyllotreta spp. = experiment: Joint toxicity of I-72 + organophosphorus insecticides, cabbage seedling spraying, Example 19, Table 19; conditions: 72 h
Procedure: Test target: adult Phyllotreta spp., a sensitive strain reared indoors.
as §4
Experimental method: first, fresh cabbage seedlings cultivated in the greenhouse were selected and evenly sprayed with the pesticide solution in the order from low dosage to high dosage according to the experimental design. After natural air-drying in the shade, they were covered with a glass cover, and uniform and healthy test insects were introduced, with 10 insects for each treatment and 3 replicates for each treatment. In addition, a blank control was set up.
as §5, with “72” for “96”

[6] = test system: 3rd-instar larvae of Spodoptera frugiperda; experiment: Joint toxicity of I-72 + indoxacarb, corn leaf dipping, Example 3, Table 3; conditions: 72 h, A = compound I-72, B = indoxacarb
Description: (§7) Test subject: 3rd-instar larvae of Spodoptera frugiperda, a sensitive strain reared indoors.
(§8) Experimental method: the dipping method was adopted. The corn leaves cultivated in the greenhouse were taken, cut into leaf segments of 5 cm long, dipped in the prepared pesticide solution for 10 s, and then cut into small pieces of 1.5 cm×1.5 cm after natural air-drying in the shade. These pieces were placed in a 24-well culture plate, and the standard test insects were introduced, with 48 insects for each treatment. The treated test insects were placed in an observation room under certain conditions. The reaction of the test insects was regularly observed, and the number of dead and live insects was investigated 72 h later.
as §3

[7] = test system: 3rd-instar larvae of Spodoptera exigua Hübner; experiment: Joint toxicity (LC50, CTC) of I-72 + indoxacarb, leaf-disk dipping, Example 1, Table 1; conditions: cabbage leaf-disk dipping, 72 h, A = compound I-72, B = indoxacarb
Procedure: (§9) Test subject: 3rd-instar larvae of Spodoptera exigua Hübner, a sensitive strain reared indoors.
Test conditions: temperature: 24-26° C., humidity: RH 60%, and illumination: L:D=14:10.
(§10) Preparation method: the test pesticides were accurately weighed respectively with an electronic analytical balance. After the two technical materials were respectively added into an appropriate amount of solvent and completely dissolved, the stock solution of the required concentration was prepared with water containing 0.1% Tween 80. The stock solutions of the two active ingredients were mixed in a certain ratio to prepare a mixed solution, which was then diluted respectively into a series of pesticide solutions with a certain concentration gradient according to the experimental design dosage.
Experimental method: the dipping method was adopted. […]
The co-toxicity coefficient (CTC value) of the mixture was calculated according to the following formula:
[formula] • in the formula: ATI-measured toxicity index of the mixture; S-LC50 of the standard pesticide; and M-LC50 of the mixture. […]
[formula] • in the formula: CTC-co-toxicity coefficient; ATI-measured toxicity index of the mixture; and TTI-theoretical toxicity index of the mixture. • CTC-co-toxicity coefficient • ATI-measured toxicity index of the mixture • TTI-theoretical toxicity index of the mixture

[8] = test system: 3rd-instar larvae of Pyrausta nubilalis Hubern; experiment: Synergism assay (Bliss) of I-72 + abamectin, spinosad, spinetoram, emamectin benzoate, Example 6, Table 6; conditions: 72 h
Procedure: as §1
Test conditions: temperature: 24-26° C., humidity: RH 60%, and illumination: L:D=14:10
as §10, §2
The evaluation method adopted was the Bliss method. This method is applicable to the qualitative screening of insecticidal compositions. According to the concept of independent joint action he proposed, Bliss believes that the theoretical mortality rate P when insecticides are used in combination can be calculated by the following formula: […]
Pm is the mortality rate (%) of the target when the first active ingredient is at a concentration of m; and Pn is the mortality rate (%) of the target when the second active ingredient is at a concentration of n.
If the actual mortality rate of the target after the two active ingredients are mixed at a certain concentration is greater than theoretical mortality rate P, it is determined that the two active ingredients have a synergistic effect when used in combination at the set concentration, and otherwise, they have an antagonistic effect.

[9] = test system: adult Bemisia tabaci (Gennadius); experiment: Joint toxicity of I-72 + emamectin benzoate, seedling spraying, Example 12, Table 12; conditions: adults, kidney bean seedling spraying, 72 h; A = compound I-72, B = emamectin benzoate
Description: Test subject: adult Bemisia tabaci (Gennadius), a sensitive strain reared indoors.
Experimental method: the spraying method was adopted. The kidney bean seedlings cultivated in the greenhouse were selected and evenly sprayed with the pesticide solution in the order from low dosage to high dosage according to the experimental design. After natural air-drying in the shade, a self-made glass cover was put on, and the test insects were introduced, with 20-30 insects for each treatment and 3 replicates. In addition, a blank control was set up. The number of dead and live insects was investigated 72 hours later. The corrected mortality rate was calculated using the Abbott's formula, and the DPS data processing software was used for statistical analysis to calculate the toxicities (LC50 values) of the single test pesticides and the mixtures under the test ratios.
(§11) The test conditions, the preparation of the pesticide solution and the evaluation method were the same as those in Example 1.

[10] = test system: 3rd-instar larvae of Spodoptera exigua Hübner; experiment: Joint toxicity of I-72 + emamectin benzoate, leaf-disk dipping, Example 9, Table 9; conditions: cabbage leaf-disk dipping, 72 h, A = compound I-72, B = emamectin benzoate
Description: as §9
Experimental method: the dipping method was adopted. The cabbage leaves cultivated in the greenhouse were taken, the surface wax layer was removed, and leaf disks with a diameter of 3 cm were made with a puncher. The leaf disks were dipped in the prepared pesticide solution for 10 s, and then put into a 9-cm-diameter Petri dish lined with filter paper. After natural air-drying in the shade, the standard test insects were introduced, with 10 insects placed in each dish and 3 replicates performed. The treated test insects were placed in an observation room under certain conditions. The reaction of the test insects was regularly observed, and the number of dead and live insects was investigated 72 h later.
as §11

[11] = test system: 2nd-instar larvae of Chilo suppressalis (Walker); experiment: whole plant or invertebrate; conditions: resistant 2nd-instar larvae, rice stalk spraying, 72 h; A = compound I-72, B = spinetoram
Procedure: In addition, a blank control was set up. The number of dead and live insects was investigated 72 hours later.

[12] = test system: 2nd-instar nymphs of Frankliniella occidentalis Pergande; experiment: Joint toxicity of I-72 + spinetoram, leaf spraying, Example 11, Table 11; conditions: kidney bean leaf spraying, 48 h, A = compound I-72, B = spinetoram
Description: Test subject: 2nd-instar nymphs of Frankliniella occidentalis Pergande, a sensitive strain reared indoors.
Experimental method: the spraying method was adopted. The kidney bean leaves cultivated in the greenhouse were selected, and the petioles were wrapped with moist degreased cotton and sealing film. They were evenly sprayed with the pesticide solution in the order from low dosage to high dosage according to the experimental design, placed in a 6-cm-diameter Petri dish with filter paper. After natural air-drying in the shade, the test insects were introduced, with 20 insects for each treatment and 3 replicates. In addition, a blank control was set up. The number of dead and live insects was investigated 48 hours later. The corrected mortality rate was calculated using the Abbott's formula, and the DPS data processing software was used for statistical analysis to calculate the toxicities (LC50 values) of the single test pesticides and the mixtures under the test ratios.
as §11

[13] = test system: 3rd-instar larvae of Spodoptera frugiperda; experiment: Joint toxicity of I-72 + spinosad, corn leaf dipping, Example 10, Table 10; conditions: 72 h, A = compound I-72, B = spinosad
Description: as §7, §8, §11

## N#Cc1ccc(CC(=NNC(=O)Nc2ccc(OC(F)(F)F)cc2)c2cccc(C(F)(F)F)c2)cc1 (mixture of isomers) [metaflumizone, reference compound]
[1]
  LC50: 12.8933 µg/mL
[2]
  LC50: 1.0724 µg/mL

## COP(=O)(NC(C)=O)SC (stereo not shown) [acephate]
[3]
  LC50: 34.9 µg/mL
[4]
  LC50: 11.1 µg/mL
[5]
  LC50: 15.5 µg/mL
Adult Phyllotreta spp.
  LC50: 61.6 µg/mL

## COC(=O)N(C(=O)N1CO[C@@]2(C(=O)OC)Cc3cc(Cl)ccc3C2=N1)c1ccc(OC(F)(F)F)cc1 [indoxacarb, reference compound]
[6]
  LC50: 2.2438 µg/mL
[7]
  LC50: 0.8555 µg/mL

## emamectin benzoate
[8]; single agent 0.05 mg/L
  Mortality rate (%): 41.67%
[8]; single agent 0.1 mg/L
  Mortality rate (%): 50.00%
[8]; single agent 0.2 mg/L
  Mortality rate (%): 79.17%
[8]; single agent 0.5 mg/L
  Mortality rate (%): 87.50%
[9]
  LC50: 1.1995 µg/mL
[10]
  LC50: 0.0878 µg/mL

## spinetoram
[8]; single agent 0.1 mg/L
  Mortality rate (%): 8.33%
[8]; single agent 1 mg/L
  Mortality rate (%): 56.25%
[8]; single agent 2 mg/L
  Mortality rate (%): 70.83%
[8]; single agent 5 mg/L
  Mortality rate (%): 81.25%
[11]
  LC50: 9.4220 µg/mL
[12]
  LC50: 0.7822 µg/mL

## spinosad
[8]; single agent 0.1 mg/L
  Mortality rate (%): 4.17%
[8]; single agent 1 mg/L
  Mortality rate (%): 52.08%
[8]; single agent 2 mg/L
  Mortality rate (%): 68.75%
[8]; single agent 5 mg/L
  Mortality rate (%): 79.17%
[13]
  LC50: 1.1242 µg/mL

— US20260198495A1, “BINARY INSECTICIDE COMPOSITION AND USE THEREOF” (SHENYANG SINOCHEM AGROCHEMICALS R & D CO., LTD., priority 2022, published 2026)
